Laboratory results taken from ChEMBL document CHEMBL2057125, “Structural simplification of bioactive natural products with multicomponent synthesis. 4. 4H-pyrano-[2,3-b]naphthoquinones with anticancer activity” (2012).

Key:
[1] = Antiproliferative activity against human MCF7/AZ cells assessed as reduction in cell viability after 48 hrs by MTT assay; type: functional
Jurkat [2] = experiment: Induction of apoptosis in human Jurkat cells assessed as apoptotic cells at 50 uM after 24 hrs using annexin-V/Propidium iodide by flow cytometry; type: functional
SK-MEL-28 = experiment: Antiproliferative activity against human SK-MEL-28 cells assessed as reduction in cell viability after 72 hrs by MTT assay; type: functional; conditions: SK-MEL-28, 72 h
[3] = Antiproliferative activity against human U373 cells assessed as reduction in cell viability after 72 hrs by MTT assay; type: functional, U-373MG ATCC; conditions: U373 MG
[4] = Antiproliferative activity against human Hs683 cells assessed as reduction in cell viability after 72 hrs by MTT assay; type: functional; conditions: Hs 683, 72 h
HeLa = experiment: Antiproliferative activity against human HeLa cells assessed as reduction in cell viability after 48 hrs by MTT assay; type: functional
LoVo = experiment: Antiproliferative activity against human LoVo cells assessed as reduction in cell viability after 72 hrs by MTT assay; type: functional
A549 = experiment: Antiproliferative activity against human A549 cells assessed as reduction in cell viability after 72 hrs by MTT assay; type: functional; conditions: A549, 72 h
Jurkat [5] = experiment: Antiproliferative activity against human Jurkat cells assessed as reduction in cell viability after 48 hrs by MTT assay; type: functional
[6] = Antiproliferative activity against human OE21 cells assessed as reduction in cell viability after 72 hrs by MTT assay; type: functional; conditions: OE21, 72 h
PC-3 = experiment: Antiproliferative activity against human PC3 cells assessed as reduction in cell viability after 72 hrs by MTT assay; type: functional; conditions: PC-3, 72 h

SMILES | GI50 (SK-MEL-28) | GI50 (HeLa) | GI50 (LoVo) | GI50 (A549) | GI50 (Jurkat [5]) | GI50 (PC-3) | GI50 [1] | Activity (Jurkat [2]) | GI50 [3] | GI50 [4] | GI50 [6]
N#CC1=C(N)OC2=C(C(=O)c3ccccc3C2=O)C1c1ccc(OC(F)(F)F)cc1 (stereo not drawn) | – | 4.3 µM | – | – | 105 µM | – | 7.1 µM | 13.5% | – | – | –
N#CC1=C(N)OC2=C(C(=O)c3ccccc3C2=O)C1c1cccc(Cl)c1 (stereo not drawn) | – | 77.5 µM | – | – | 108 µM | – | 59.8 µM | 22% | – | – | –
N#CC1=C(N)OC2=C(C(=O)c3ccccc3C2=O)C1c1ccc(Cl)cc1 (stereo not drawn) | – | 31.7 µM | – | – | 105 µM | – | 24 µM | 23.8% | – | – | –
N#CC1=C(N)OC2=C(C(=O)c3ccccc3C2=O)C1c1c(Cl)cccc1Cl (stereo not drawn) | 17.1 µM | 5.3 µM | 4.3 µM | 40.6 µM | 172 µM | 6.2 µM | 3.1 µM | 5.1% | 12.8 µM | 19.3 µM | 17.4 µM
N#CC1=C(N)OC2=C(C(=O)c3ccccc3C2=O)C1c1ccccc1Br (stereo not drawn) | – | 31.6 µM | – | – | 30.7 µM | – | 26.3 µM | 41.7% | – | – | –
N#CC1=C(N)OC2=C(C(=O)c3ccccc3C2=O)C1c1ccc(Br)cc1 (stereo not drawn) | – | 30 µM | – | – | 38.3 µM | – | 22.8 µM | 40.1% | – | – | –
N#CC1=C(N)OC2=C(C(=O)c3ccccc3C2=O)C1c1c(F)cccc1Cl (stereo not drawn) | – | 34.4 µM | – | – | 52.3 µM | – | 8 µM | 21.3% | – | – | –
N#CC1=C(N)OC2=C(C(=O)c3ccccc3C2=O)C1c1ccc(C(F)(F)F)cc1 (stereo not drawn) | – | 11.8 µM | – | – | 80.5 µM | – | 5.6 µM | 15.5% | – | – | –
N#CC1=C(N)OC2=C(C(=O)c3ccccc3C2=O)C1c1ccc(-c2ccccc2)cc1 (stereo not drawn) | – | 23.6 µM | – | – | 122 µM | – | 26 µM | 11.2% | – | – | –
N#CC1=C(N)OC2=C(C(=O)c3ccccc3C2=O)C1c1ccc([N+](=O)[O-])cc1 (stereo not drawn) | – | 16.8 µM | – | – | 24.3 µM | – | 9.8 µM | 23.1% | – | – | –
CC(C)c1ccc(C2C(C#N)=C(N)OC3=C2C(=O)c2ccccc2C3=O)cc1 (stereo not drawn) | – | 62.5 µM | – | – | 80.6 µM | – | 34 µM | 2.9% | – | – | –
N#CC1=C(N)OC2=C(C(=O)c3ccccc3C2=O)C1c1cccs1 (stereo not drawn) | – | 94 µM | – | – | 82.4 µM | – | 36.9 µM | 11.2% | – | – | –
N#CC1=C(N)OC2=C(C(=O)c3ccccc3C2=O)C1c1cccnc1 (stereo not drawn) | – | 14.2 µM | – | – | 20.4 µM | – | 3.4 µM | 20.8% | – | – | –
CC1(C)CCC2=C(O1)c1ccccc1C(=O)C2=O [LAPACHONE] | 0.6 µM | 4.6 µM | 0.3 µM | 0.8 µM | 6.1 µM | 0.01 µM | 6 µM | 51% | 0.4 µM | 0.4 µM | 0.6 µM

Continued, in another order:

GI50 (SK-MEL-28) | GI50 (HeLa) | GI50 (LoVo) | GI50 (A549) | GI50 (Jurkat [5]) | GI50 (PC-3) | SMILES | GI50 [1] | Activity (Jurkat [2]) | GI50 [3] | GI50 [4] | GI50 [6]
4.5 µM | 4 µM | 3.4 µM | 5 µM | 17.9 µM | 6.2 µM | N#CC1=C(N)OC2=C(C(=O)c3ccccc3C2=O)C1c1cccc(Oc2ccccc2)c1 (stereo not drawn) | 2.2 µM | 50% | 3.4 µM | 5 µM | 2.2 µM
– | 20.5 µM | – | – | 185 µM | – | N#CC1=C(N)OC2=C(C(=O)c3ccccc3C2=O)C1c1ccccc1Cl (stereo not drawn) | 19 µM | 6.3% | – | – | –
– | 16.1 µM | – | – | 20 µM | – | N#CC1=C(N)OC2=C(C(=O)c3ccccc3C2=O)C1c1cccc(Br)c1 (stereo not drawn) | 28.6 µM | 48.4% | – | – | –
– | 23.5 µM | – | – | 43.3 µM | – | N#CC1=C(N)OC2=C(C(=O)c3ccccc3C2=O)C1c1ccccc1 (stereo not drawn) | 18.5 µM | 16.7% | – | – | –
– | 9.1 µM | – | – | 19.1 µM | – | N#CC1=C(N)OC2=C(C(=O)c3ccccc3C2=O)C1c1cccc([N+](=O)[O-])c1 (stereo not drawn) | 10.8 µM | 33.6% | – | – | –
– | 11.2 µM | – | – | 16.8 µM | – | N#CC1=C(N)OC2=C(C(=O)c3ccccc3C2=O)C1c1ccccc1[N+](=O)[O-] (stereo not drawn) | 8.3 µM | 25% | – | – | –
– | 119 µM | – | – | 332 µM | – | N#CC1=C(N)OC2=C(C(=O)c3ccccc3C2=O)C1c1ccc(C(=O)O)cc1 (stereo not drawn) | 94.4 µM | 4.1% | – | – | –
– | 30.6 µM | – | – | 85 µM | – | N#CC1=C(N)OC2=C(C(=O)c3ccccc3C2=O)C1c1ccc(O)cc1 (stereo not drawn) | 8.6 µM | 16.7% | – | – | –
– | 54.3 µM | – | – | 47.8 µM | – | Cc1ccc(C2C(C#N)=C(N)OC3=C2C(=O)c2ccccc2C3=O)o1 (stereo not drawn) | 51.6 µM | 57.8% | – | – | –
– | 14.5 µM | – | – | 23.9 µM | – | N#CC1=C(N)OC2=C(C(=O)c3ccccc3C2=O)C1c1ccncc1 (stereo not drawn) | 6 µM | 28.6% | – | – | –
4.7 µM | 25 µM | 24.4 µM | 16.3 µM | 75 µM | 13 µM | CC1(C)CCC2=C(O1)C(=O)c1ccccc1C2=O [ALPHA-LAPACHONE] | 16.7 µM | 7.4% | 23.1 µM | 9 µM | 22.7 µM
